Measured values from US5011828A, “Immunostimulating guanine derivatives, compositions and methods” (priority 1988, dated 1991).
In brackets after ≈: the same amount, converted by molar mass.

Key:
[1] = system: murine lymphocytes (sheep red blood cells as antigen); experiment: Antigen-specific adjuvanticity: direct anti-SRBC plaque forming cells, murine system; type: cell-based, mouse; settings: for Direct anti-SRBC PFC/Culture at supraoptimal concentration: 3 × 10^-4 M
Procedure, shortened: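 Murine spleen cells (5×10^6 to 10^7) cultured 4 or 5 days in 1.0 ml 5% FCS RPMI 1640, 37 °C, 10% CO2, with or without SRBC immunogen. Anti-SRBC direct plaque-forming cells counted per culture by modified Jerne–Nordin hemolytic plaque assay with guinea pig complement; mean ± standard error at peak concentration.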

[2] = system: anti-TNP-BSA antibody titers in CBA/CaJ mice; experiment: In vivo anti-TNP-BSA antibody response (ELISA); design: species or system mouse; settings: i.p., 0.2 ml at 5 mg/ml, 37 days
Method: FIG. 4 is a graph containing a number of plots that illustrate the in vivo kinetics of enhanced anti-trinitrophenyl bovine serum albumin (TNP-BSA) antibody responses elicited by contacting leukocytes in vivo with a composition containing 7-allyl-8-mercaptoguanosine (7a8MGuo). Here, the guanosine derivative (0.2 ml of 7a8MGuo at 5 mg/ml) was in a vehicle of 100 percent sesame oil (solid line) or 2 percent sesame oil in saline (dotted line) when introduced into the animal.
Three groups of CBA/CaJ mice were utilized. Each group was immunized with the TNP-BSA conjugate. […]
Antibody titers to TNP-BSA were determined over a period of 37 days using standard enzyme-linked immunosorbent assay (ELISA) procedures with TNP-BSA as antigen. […]
CBA/CaJ mice were immunized intraperitonally (i.p.) using a conjugate (TNP-BSA) prepared by the reaction of 2,4,6-trinitrobenzene sulfonic acid (TNBS) and bovine serum albumin (BSA) in a 0.28 molar cacodylate buffer, at pH 6.9. […] Anti-TNP-BSA antibody secretion from each group was thereafter monitored over a period of 37 days by standard enzyme-linked immunosorbant assay (ELISA) techniques using TNP-BSA as antigen.
Injections. […] Anti-TNP-BSA antibody titers were determined using standard techniques.

physchem = type: physicochemical, human
Excerpt: Solubilities in urine could be expected to be lower than those for water due to the relatively higher salt content in urine than is found in water.
Each sample was filtered through a 5 micron pore-sized filter, diluted as necessary with the HPLC mobile phase, and then quantified by HPLC.

With `C=CCn1c(=S)n([C@@H]2O[C@H](CO)[C@@H](O)[C@H]2O)c2nc(N)[nH]c(=O)c21` [7a8MGuo, 7-(2-Propenyl)-8-thioxoguanosine] the “Direct anti-SRBC PFC/Culture at supraoptimal concentration” value ([1]; Table 5, supraoptimal concentration (*)) was 925 ± 80 PFC/Culture, the “Peak Direct anti-SRBC PFC/Culture” value ([1]; Table 5, murine system, at peak concentration) was 1850 ± 70 PFC/Culture and the “Peak Direct anti-SRBC PFC/Culture” value ([1]; Table 6, murine system, at peak concentration) was 1867 ± 150 PFC/Culture. The “Peak Direct anti-SRBC PFC/Culture” value ([1]; Table 6, study a) was 1850 ± 50 PFC/Culture, the “Direct anti-SRBC PFC/Culture at supraoptimal concentration” value ([1]; Table 6, study b, supraoptimal amount (*)) was 925 ± 80 PFC/Culture and the “Peak Direct anti-SRBC PFC/Culture” value ([1]; Table 6, study c) was 1975 ± 109 PFC/Culture. The “Direct Anti-SRBC PFC/Culture” value ([1]; Table 8, 1 × 10^-5 M) was 1049 PFC/Culture, the “Average 1 Log Plaque Values” ([1]; Table 9, murine, * = single study) was 326,840 ± 170,907 per micromole and the “adjuvanticity higher / more active than comparison compound of U.S. Pat. No. 4,643,992” value ([1]; murine system (Table 5), vs 7m8oGuo or compounds of that patent) was “more than 100%”. For the same compound, the “anti-TNP-BSA antibody titer, ratio to control” value ([2]; 2 percent sesame oil in saline vehicle) was “about 4 times”, the “anti-TNP-BSA antibody titer, ratio to control” value ([2]; 100 percent sesame oil vehicle) was “about 5 times” and the “solubility in human urine, in words” value (physchem) was “relatively insoluble”. It also gave a solubility at 18 h (physchem; human, urine) of 300 µg/mL (≈ 844 µM).
